Data on 1 compound can be found in patent US20230148299A1, “FEM1B PROTEIN BINDING AGENTS AND USES THEREOF” (The Regents Of The University Of California, priority 2020, published 2023).

Assay [1] relates to GFP-Fnip1 degron reporter. The assay is described as follows: GFP-Fnip1 degron reporter (GFP/mCherry) by flow cytometry. The class given is cell-based. The following applies: HEK293T cells, reporter +/- Fem1b, 20 μM, 8 hours.
Protocol: HEK293T cells were transfected 24 hours before flow cytometery with the GFP-Fnip1 degron reporter+/−Fem1b.
FNIP1 variants were expressed in cells and tested for interaction with ^FLAGFEM1B by co-immunoprecipitation, and for degradation by measuring their abundance in the presence or absence of FEM1B. […] FEM1B variants were immunoprecipitated and bound FNIP1 and FLCN were detected by Western blotting. […] The FNIP1 degron was fused to GFP (GFP^degron) and expressed from the same plasmid as an IRES controlled mCherry. mCherry provides normalization for GFP fluorescence in each cell. […] Levels of GFP^degron and mCherry were determined by FACS, and their ratio is depicted for presence or absence of FEM1B variants. […] Cells were transfected with the GFP^degron/mCherry reporter, and analyzed for GFP and mCherry fluorescence by FACS. […] A TAMRA-labeled FNIP1 degron peptide was incubated with purified FEMIB or the control CRL1 adaptor FBXL17, and binding was measured by fluorescence polarization of the peptide. […] The TAMRA-labeled FNIP1 degron was incubated with recombinant CUL2^FEM1B (unmodified or NEDD8-modified), E1, ubiquitin, ATP and the E2 enzymes UBE2D3 and/or UBE2R1. Ubiquitylation was monitored by gel electrophoresis and fluorescence detection.
Assay [2] concerns the target T1, FEM1B (Homo sapiens, UniProt Q9UK73). As to the kind of experiment: EN106-alkyne pulldown and isoTOP-ABPP in HEK293T cells. The arrangement: endogenous in cells; host or cells: HEK293T. The class given is cell-based. The following applies: EN106 10 μM 2 h (isoTOP-ABPP), EN106-alkyne pulldown. How it is done: FIGS. 14A-14C. […] FIG. 14A: Structures of EN106 and EN106-alkyne (NJH-2-030). FIG. 14B: EN106-alkyne pulldown. See Example 4 for experimental procedure. FIG. 14C: HEK293T cells were treated with vehicle or EN106 (10 μM) for 2 h and cell lysates were subjected to the isoTOP-ABPP protocol described in Example 4.
EN106-alkyne pulldown protocol. HEK293T cells were treated with DMSO or 10 μM NJH-2-030 in situ for 8 h. Cells were harvested, lysed via sonication and normalized to 2.0 mg/mL. Following normalization, 100 μL of each lysate sample was removed for Western blot analysis of input, and 500 μL of each lysate sample was incubated for 1 h at room temperature with 10 μL of 5 mM biotin picolyl azide (in water) (Sigma Aldrich 900912), 10 μL of 50 mM TCEP (in water), 30 μL of TBTA ligand (0.9 mg/mL in DMSO:t-butanol=1:4), and 10 μL of 50 mM Copper (II) Sulfate (12.5 mg/mL in water). Proteins were precipitated, washed 3×1 mL with cold MeOH, resolubilized in 1 mL of 1.2% SDS/PBS (w/v), heated for 5 min at 90° C., and centrifuged to remove any insoluble components. […] Proteins in each sample were then analyzed by Western blotting to look for enriched FEM1B versus non-enriched GAPDH.
IsoTOP-ABPP Chemoproteomic Experiment. […] Cells were lysed by probe sonication in PBS and protein concentrations were measured by BCA assay. […]

In assay [3] the target is T1, FEM1B. As to the kind of experiment: Gel-based ABPP of EN106 against FEM1B and site identification. The class given is binding. The following applies: C186. The text has this:
FIGS. 12A-12B. […] FIG. 12A: Gel-based ABPP of EN106 against FEM1B. FIG. 12B: EN106 targets C186 in FEM1B. C186 is critical for substrate recognition of FEM1B. Sequence shown is: […] (residues 183-205 of SEQ ID NO:1).

In assay [4] the target is FEM1B-FNIP1 (Homo sapiens, UniProt Q9UK73). As to the kind of experiment: Fluorescence polarization between FEM1B and FNIP1 (covalent ligand screen). The class given is binding. As to conditions: DMSO = 100, FP between FEM1B and FNIP1. The text has this: FIG. 11. Fluorescence polarization screen to identify functional FEM1B-FNIP1-targeting covalent ligands.
FEM1B binds a conserved central degron in FNIP1. Deletion analysis of FNIP1 identifies a stretch of 20 amino acids that is required for its binding to FEM1B and its proteasomal degradation. FNIP1 variants were expressed in cells and tested for interaction with ^FLAGFEM1B by co-immunoprecipitation, and for degradation by measuring their abundance in the presence or absence of FEM1B. The FNIP1 degron is required for FEM1B binding and proteasomal degradation. […] FEM1B variants were immunoprecipitated and bound FNIP1 and FLCN were detected by Western blotting. The FNIP1 degron is sufficient to mediate FEM1B-dependent degradation. The FNIP1 degron was fused to GFP (GFP^degron) and expressed from the same plasmid as an IRES controlled mCherry. mCherry provides normalization for GFP fluorescence in each cell. […] Levels of GFP^degron and mCherry were determined by FACS, and their ratio is depicted for presence or absence of FEM1B variants. Deletion of FEM1B prevents FNIP1-degron dependent degradation. The FEM1B locus was deleted in 293T cells using CRISPR/Cas9. Cells were transfected with the GFP^degron/mCherry reporter, and analyzed for GFP and mCherry fluorescence by FACS. FEM1B directly binds the FNIP1 degron in vitro. A TAMRA-labeled FNIP1 degron peptide was incubated with purified FEMIB or the control CRL1 adaptor FBXL17, and binding was measured by fluorescence polarization of the peptide. The FNIP1 degron is sufficient to mediate CUL2^FEM1B-dependent ubiquitylation. The TAMRA-labeled FNIP1 degron was incubated with recombinant CUL2^FEM1B (unmodified or NEDD8-modified), E1, ubiquitin, ATP and the E2 enzymes UBE2D3 and/or UBE2R1. Ubiquitylation was monitored by gel electrophoresis and fluorescence detection.
(Fluorescence polarisation rises when a labelled molecule tumbles more slowly, as on binding a larger partner.)

T1 sequence (Q9UK73 whole entry): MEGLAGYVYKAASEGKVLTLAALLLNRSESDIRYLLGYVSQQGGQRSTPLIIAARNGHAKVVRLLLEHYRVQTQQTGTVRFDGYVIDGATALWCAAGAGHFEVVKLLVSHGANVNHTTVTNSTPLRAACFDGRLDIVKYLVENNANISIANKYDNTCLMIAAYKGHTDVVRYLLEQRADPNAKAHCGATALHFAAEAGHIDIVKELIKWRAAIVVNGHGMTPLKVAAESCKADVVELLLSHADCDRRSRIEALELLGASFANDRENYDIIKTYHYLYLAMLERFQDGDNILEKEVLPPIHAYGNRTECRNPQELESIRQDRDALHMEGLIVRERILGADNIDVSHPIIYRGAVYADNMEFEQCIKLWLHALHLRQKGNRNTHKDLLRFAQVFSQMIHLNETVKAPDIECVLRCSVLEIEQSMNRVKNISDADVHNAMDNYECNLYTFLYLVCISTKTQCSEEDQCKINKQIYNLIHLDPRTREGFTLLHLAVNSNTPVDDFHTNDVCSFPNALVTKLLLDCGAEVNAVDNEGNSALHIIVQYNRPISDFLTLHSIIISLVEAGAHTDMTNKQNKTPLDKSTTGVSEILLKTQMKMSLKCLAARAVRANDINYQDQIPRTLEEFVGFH
Chain of FEM1B-FNIP1 (Q9UK73 whole entry): as above

Turning to `N#CCCN(C(=O)CCl)c1ccc2c(c1)OCCO2` [EN106, 2-chloro-N-(2-cyanoethyl)-N-(2,3-dihydrobenzo[b][1,4]dioxin-6-yl)acetamide], the “inhibition of FEM1B in cells / FNIP1 stabilization” value in assay [1] is “inhibits endogenous and overexpressed FEM1B in cells and stabilizes FNIP1”. Besides, the “FEM1B engagement in cells” value in assay [2] was “engages FEM1B in cells”. Moreover, the “covalent targeting of FEM1B cysteine” value in assay [3] was “covalently targets C186 on FEM1B”. Moreover, the remaining activity at 5 µM in assay [4] (compound at 5 μM, read-out: Normalized FP 5 μM) was determined as 50.6%. In addition, in assay [4] (compound at 50 μM, read-out: Normalized FP 50 μM), the activity at 50 µM is 4.2%.
